Source: ChEMBL document CHEMBL4507282, “Data for DCP probe BI-1950” (2021)

Key:
Details in all cases: Compound concentration 1000.0 nM
[1] = tested on: Phosphatidylinositol 4,5-bisphosphate 3-kinase catalytic subunit alpha isoform (Homo sapiens), P42336 [M1043I]
[2] = target: Casein kinase I isoform epsilon (Homo sapiens) (UniProt P49674)
[3] = target: Serine/threonine-protein kinase 36 (Homo sapiens) (UniProt Q9NRP7)
[4] = target: Calcium/calmodulin-dependent protein kinase type II subunit beta (Homo sapiens) (UniProt Q13554)
[5] = target: Dual specificity mitogen-activated protein kinase kinase 4 (Homo sapiens) (UniProt P45985)
Dual specificity mitogen-activated protein kinase kinase 4 (Homo sapiens), sequence (P45985 whole entry): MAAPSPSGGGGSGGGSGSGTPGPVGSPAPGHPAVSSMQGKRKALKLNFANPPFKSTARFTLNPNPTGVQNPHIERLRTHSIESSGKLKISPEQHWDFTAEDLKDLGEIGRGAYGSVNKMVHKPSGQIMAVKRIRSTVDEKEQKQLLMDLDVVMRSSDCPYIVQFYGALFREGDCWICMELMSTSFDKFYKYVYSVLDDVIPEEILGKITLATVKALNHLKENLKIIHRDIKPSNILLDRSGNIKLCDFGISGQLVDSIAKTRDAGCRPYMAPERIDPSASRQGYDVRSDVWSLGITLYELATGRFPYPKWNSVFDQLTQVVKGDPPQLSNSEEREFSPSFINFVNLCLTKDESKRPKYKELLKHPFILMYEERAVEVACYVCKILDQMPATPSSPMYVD

[6] = target: Atypical kinase COQ8B, mitochondrial (Homo sapiens) (UniProt Q96D53)
[7] = target: Serine/threonine-protein kinase TBK1 (Homo sapiens) (UniProt Q9UHD2)
[8] = target: Dual specificity tyrosine-phosphorylation-regulated kinase 1B (Homo sapiens) (UniProt Q9Y463)
[9] = target: Serine/threonine-protein kinase TAO1 (Homo sapiens) (UniProt Q7L7X3)
Serine/threonine-protein kinase TAO1 (Homo sapiens), sequence (Q7L7X3 whole entry): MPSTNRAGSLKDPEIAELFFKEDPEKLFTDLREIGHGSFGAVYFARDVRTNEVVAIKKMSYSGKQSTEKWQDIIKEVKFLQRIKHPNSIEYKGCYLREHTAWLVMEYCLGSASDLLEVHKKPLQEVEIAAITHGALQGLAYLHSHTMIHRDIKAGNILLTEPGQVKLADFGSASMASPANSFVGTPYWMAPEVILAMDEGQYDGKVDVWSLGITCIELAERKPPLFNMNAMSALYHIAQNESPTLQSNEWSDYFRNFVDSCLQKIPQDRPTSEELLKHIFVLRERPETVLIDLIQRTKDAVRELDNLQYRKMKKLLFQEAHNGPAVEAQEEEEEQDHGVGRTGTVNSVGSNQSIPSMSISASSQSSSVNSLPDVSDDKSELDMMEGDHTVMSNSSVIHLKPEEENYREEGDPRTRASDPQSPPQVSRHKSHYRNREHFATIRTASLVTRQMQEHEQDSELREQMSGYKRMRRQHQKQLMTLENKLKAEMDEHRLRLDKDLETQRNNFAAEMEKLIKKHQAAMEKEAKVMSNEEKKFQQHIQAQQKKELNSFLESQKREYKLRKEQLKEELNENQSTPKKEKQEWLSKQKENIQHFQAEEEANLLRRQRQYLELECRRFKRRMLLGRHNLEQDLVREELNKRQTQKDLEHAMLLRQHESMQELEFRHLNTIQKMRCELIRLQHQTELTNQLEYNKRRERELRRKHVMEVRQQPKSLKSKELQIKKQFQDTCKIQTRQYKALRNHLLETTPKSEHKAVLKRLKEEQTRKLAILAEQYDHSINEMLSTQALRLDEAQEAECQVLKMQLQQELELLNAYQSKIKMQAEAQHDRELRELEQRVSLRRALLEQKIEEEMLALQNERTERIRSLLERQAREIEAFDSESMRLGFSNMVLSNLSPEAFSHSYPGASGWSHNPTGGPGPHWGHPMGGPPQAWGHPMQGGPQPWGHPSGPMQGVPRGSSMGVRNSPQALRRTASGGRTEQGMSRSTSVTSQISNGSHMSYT

[10] = target: Proto-oncogene tyrosine-protein kinase ROS (Homo sapiens) (UniProt P08922)
[11] = target: Ephrin type-A receptor 8 (Homo sapiens) (UniProt P29322)
Ephrin type-A receptor 8 (Homo sapiens), sequence (P29322 whole entry): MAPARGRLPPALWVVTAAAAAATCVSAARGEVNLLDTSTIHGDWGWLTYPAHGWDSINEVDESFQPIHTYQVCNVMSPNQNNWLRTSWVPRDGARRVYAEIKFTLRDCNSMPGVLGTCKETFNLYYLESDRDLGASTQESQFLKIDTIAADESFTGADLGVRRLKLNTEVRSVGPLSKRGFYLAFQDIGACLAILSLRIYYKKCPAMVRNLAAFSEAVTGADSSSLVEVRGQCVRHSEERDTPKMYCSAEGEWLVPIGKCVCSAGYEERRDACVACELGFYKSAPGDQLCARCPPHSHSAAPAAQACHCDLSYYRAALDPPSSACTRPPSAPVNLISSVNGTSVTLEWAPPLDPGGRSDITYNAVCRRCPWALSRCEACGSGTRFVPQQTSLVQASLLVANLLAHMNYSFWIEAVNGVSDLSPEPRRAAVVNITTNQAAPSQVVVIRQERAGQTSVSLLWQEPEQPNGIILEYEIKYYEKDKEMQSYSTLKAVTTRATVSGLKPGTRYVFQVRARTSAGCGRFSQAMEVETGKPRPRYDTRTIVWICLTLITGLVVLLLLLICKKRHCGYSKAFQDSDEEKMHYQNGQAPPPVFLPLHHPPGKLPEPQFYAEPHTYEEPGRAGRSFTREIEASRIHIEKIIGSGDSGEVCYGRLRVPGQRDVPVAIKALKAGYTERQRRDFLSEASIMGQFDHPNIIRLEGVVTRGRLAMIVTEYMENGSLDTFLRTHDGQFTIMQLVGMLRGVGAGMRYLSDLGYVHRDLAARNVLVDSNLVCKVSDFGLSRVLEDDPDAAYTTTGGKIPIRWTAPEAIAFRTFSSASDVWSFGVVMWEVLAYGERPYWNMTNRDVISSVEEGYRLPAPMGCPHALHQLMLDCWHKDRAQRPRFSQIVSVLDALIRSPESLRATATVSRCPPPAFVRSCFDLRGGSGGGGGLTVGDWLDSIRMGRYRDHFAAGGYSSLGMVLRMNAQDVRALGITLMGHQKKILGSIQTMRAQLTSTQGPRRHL

[12] = target: Serine/threonine-protein kinase TNNI3K (Homo sapiens) (UniProt Q59H18)
[13] = target: Myotonin-protein kinase (Homo sapiens) (UniProt Q09013)
[14] = target: Protein kinase C epsilon type (Homo sapiens) (UniProt Q02156)
[15] = target: Mitogen-activated protein kinase kinase kinase 13 (Homo sapiens) (UniProt O43283)
[16] = target: Serine/threonine-protein kinase N1 (Homo sapiens) (UniProt Q16512)
Serine/threonine-protein kinase N1 (Homo sapiens), sequence (Q16512 2-942 limits assumed): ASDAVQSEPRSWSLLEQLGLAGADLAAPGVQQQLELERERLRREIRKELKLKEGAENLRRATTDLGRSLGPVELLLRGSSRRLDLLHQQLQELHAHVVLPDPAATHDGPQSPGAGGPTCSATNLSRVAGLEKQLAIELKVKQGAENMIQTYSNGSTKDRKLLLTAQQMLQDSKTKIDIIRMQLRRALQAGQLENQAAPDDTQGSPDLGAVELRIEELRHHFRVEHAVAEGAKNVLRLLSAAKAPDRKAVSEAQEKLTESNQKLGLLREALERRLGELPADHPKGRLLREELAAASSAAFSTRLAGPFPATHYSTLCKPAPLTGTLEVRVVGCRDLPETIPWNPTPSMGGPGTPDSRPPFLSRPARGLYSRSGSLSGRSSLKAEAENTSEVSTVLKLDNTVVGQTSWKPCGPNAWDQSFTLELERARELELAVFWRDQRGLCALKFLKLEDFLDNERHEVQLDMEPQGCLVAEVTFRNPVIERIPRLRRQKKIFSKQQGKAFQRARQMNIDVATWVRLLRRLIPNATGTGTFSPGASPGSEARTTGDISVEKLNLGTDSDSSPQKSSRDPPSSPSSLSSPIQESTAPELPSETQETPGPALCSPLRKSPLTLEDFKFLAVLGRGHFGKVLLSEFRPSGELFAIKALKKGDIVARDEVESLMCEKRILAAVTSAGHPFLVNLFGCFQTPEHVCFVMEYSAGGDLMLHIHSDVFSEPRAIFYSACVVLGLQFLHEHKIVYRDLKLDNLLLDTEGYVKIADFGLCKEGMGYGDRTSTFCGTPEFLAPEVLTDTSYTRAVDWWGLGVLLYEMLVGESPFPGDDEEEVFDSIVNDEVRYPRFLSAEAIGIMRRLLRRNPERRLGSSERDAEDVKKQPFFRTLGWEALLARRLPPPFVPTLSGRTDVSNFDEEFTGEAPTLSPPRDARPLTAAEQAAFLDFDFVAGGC

[17] = target: Dual serine/threonine and tyrosine protein kinase (Homo sapiens) (UniProt Q6XUX3)
[18] = target: Tyrosine-protein kinase Mer (Homo sapiens) (UniProt Q12866)
[19] = tested on: Tyrosine-protein kinase ABL1 (Homo sapiens), P00519 [T315I]
[20] = tested on: Mast/stem cell growth factor receptor Kit (Homo sapiens), P10721 [D816H]
[21] = target: Inhibitor of nuclear factor kappa-B kinase subunit beta (Homo sapiens) (UniProt O14920)
[22] = tested on: Epidermal growth factor receptor (Homo sapiens), P00533 [L861Q]
[23] = target: Serine/threonine-protein kinase 32C (Homo sapiens) (UniProt Q86UX6)
[24] = target: Tyrosine-protein kinase JAK1 (Homo sapiens) (UniProt P23458)
[25] = target: Calcium/calmodulin-dependent protein kinase type 1D (Homo sapiens) (UniProt Q8IU85)
[26] = target: Serine/threonine-protein kinase Nek7 (Homo sapiens) (UniProt Q8TDX7)
[27] = target: LIM domain kinase 2 (Homo sapiens) (UniProt P53671)
LIM domain kinase 2 (Homo sapiens), sequence (P53671 whole entry, looked up, the tested form may be a part): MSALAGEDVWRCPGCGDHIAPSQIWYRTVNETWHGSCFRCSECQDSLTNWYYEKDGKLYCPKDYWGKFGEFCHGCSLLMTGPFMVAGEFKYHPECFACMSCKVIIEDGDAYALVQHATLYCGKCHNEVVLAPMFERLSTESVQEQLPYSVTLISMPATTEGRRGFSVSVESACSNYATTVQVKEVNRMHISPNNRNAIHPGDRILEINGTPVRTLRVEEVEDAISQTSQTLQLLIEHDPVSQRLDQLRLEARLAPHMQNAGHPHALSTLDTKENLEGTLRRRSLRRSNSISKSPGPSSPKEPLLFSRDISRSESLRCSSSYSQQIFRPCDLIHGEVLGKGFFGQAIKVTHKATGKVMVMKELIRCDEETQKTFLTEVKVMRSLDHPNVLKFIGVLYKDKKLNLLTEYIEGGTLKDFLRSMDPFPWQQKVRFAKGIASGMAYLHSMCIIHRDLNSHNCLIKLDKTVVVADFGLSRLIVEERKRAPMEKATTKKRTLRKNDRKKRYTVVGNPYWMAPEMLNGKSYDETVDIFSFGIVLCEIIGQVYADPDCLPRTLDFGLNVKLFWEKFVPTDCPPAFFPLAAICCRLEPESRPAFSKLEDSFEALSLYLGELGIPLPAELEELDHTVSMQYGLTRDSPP

[28] = target: Interleukin-1 receptor-associated kinase 1 (Homo sapiens) (UniProt P51617)
Interleukin-1 receptor-associated kinase 1 (Homo sapiens), sequence (P51617 whole entry, looked up): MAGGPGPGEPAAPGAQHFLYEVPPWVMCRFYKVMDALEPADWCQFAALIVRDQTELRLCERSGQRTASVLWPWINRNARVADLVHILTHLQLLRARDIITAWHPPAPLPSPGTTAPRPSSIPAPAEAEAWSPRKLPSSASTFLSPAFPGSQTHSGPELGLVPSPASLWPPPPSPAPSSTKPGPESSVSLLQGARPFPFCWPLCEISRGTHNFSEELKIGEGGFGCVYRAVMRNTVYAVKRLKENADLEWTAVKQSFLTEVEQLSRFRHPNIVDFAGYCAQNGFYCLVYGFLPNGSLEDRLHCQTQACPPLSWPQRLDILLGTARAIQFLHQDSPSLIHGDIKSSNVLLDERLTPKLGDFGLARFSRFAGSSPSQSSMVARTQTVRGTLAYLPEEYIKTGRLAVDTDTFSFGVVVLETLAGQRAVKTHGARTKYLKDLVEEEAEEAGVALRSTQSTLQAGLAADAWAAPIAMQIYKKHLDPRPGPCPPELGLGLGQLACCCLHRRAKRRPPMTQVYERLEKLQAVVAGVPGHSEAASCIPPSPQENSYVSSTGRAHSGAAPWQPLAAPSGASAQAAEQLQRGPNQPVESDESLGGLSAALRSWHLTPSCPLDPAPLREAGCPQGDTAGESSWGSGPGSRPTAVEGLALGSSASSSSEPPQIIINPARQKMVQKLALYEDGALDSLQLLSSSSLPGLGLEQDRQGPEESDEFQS

[29] = target: Non-receptor tyrosine-protein kinase TNK1 (Homo sapiens) (UniProt Q13470)
[30] = target: Serine/threonine-protein kinase Nek11 (Homo sapiens) (UniProt Q8NG66)
[31] = target: Aurora kinase C (Homo sapiens) (UniProt Q9UQB9)
[32] = target: Myosin-IIIb (Homo sapiens) (UniProt Q8WXR4)
[33] = target: Receptor tyrosine-protein kinase erbB-3 (Homo sapiens) (UniProt P21860)
[34] = target: Casein kinase I isoform gamma-2 (Homo sapiens) (UniProt P78368)
[35] = target: Serine/threonine-protein kinase SIK1 (Homo sapiens) (UniProt P57059)
[36] = target: Mitogen-activated protein kinase 7 (Homo sapiens) (UniProt Q13164)
[37] = target: Fibroblast growth factor receptor 1 (Homo sapiens) (UniProt P11362)
[38] = target: Ribosomal protein S6 kinase alpha-4 (Homo sapiens) (UniProt O75676)
[39] = target: Ephrin type-A receptor 4 (Homo sapiens) (UniProt P54764)
[40] = target: STE20/SPS1-related proline-alanine-rich protein kinase (Homo sapiens) (UniProt Q9UEW8)
[41] = target: Cyclin-dependent kinase 3 (Homo sapiens) (UniProt Q00526)
Cyclin-dependent kinase 3 (Homo sapiens), sequence (Q00526 whole entry, looked up): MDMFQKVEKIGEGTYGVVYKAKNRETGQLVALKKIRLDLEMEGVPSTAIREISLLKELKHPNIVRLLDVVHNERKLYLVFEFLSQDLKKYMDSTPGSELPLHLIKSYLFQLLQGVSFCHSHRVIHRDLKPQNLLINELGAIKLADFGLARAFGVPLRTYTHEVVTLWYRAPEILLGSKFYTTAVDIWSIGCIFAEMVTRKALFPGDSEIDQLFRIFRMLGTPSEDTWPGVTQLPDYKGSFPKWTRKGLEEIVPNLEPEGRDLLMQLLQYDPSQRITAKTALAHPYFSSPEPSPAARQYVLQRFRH

[42] = target: Myosin light chain kinase 2, skeletal/cardiac muscle (Homo sapiens) (UniProt Q9H1R3)
[43] = target: Calcium/calmodulin-dependent protein kinase type II subunit delta (Homo sapiens) (UniProt Q13557)
[44] = tested on: ALK tyrosine kinase receptor (Homo sapiens), Q9UM73 [C1156Y]
[45] = target: Serine/threonine-protein kinase 17B (Homo sapiens) (UniProt O94768)

For `C[C@H](NC(=O)c1cnc2n1[C@](C)(Cc1ccc(C#N)cc1)C(=O)N2c1cc(Cl)c(F)c(Cl)c1)C(=O)NC1(c2ccccn2)CC1` [BI 1950], the residual activity [1] was 100%, the residual activity [2] was 82% and the residual activity [3] was 100%. The residual activity [4] was 100%, the residual activity [5] was 100% and the residual activity [6] was 100%. The residual activity [7] was 97%, the residual activity [8] was 100% and the residual activity [9] was 86%. The residual activity [10] was 100%, the residual activity [11] was 100% and the residual activity [12] was 65%. The residual activity [13] was 67%, the residual activity [14] was 100% and the residual activity [15] was 100%. It also gave a residual activity [16] of 100%, a residual activity [17] of 87% and a residual activity [18] of 99%. It also gave a residual activity [19] of 85%, a residual activity [20] of 100% and a residual activity [21] of 90%. It also gave a residual activity [22] of 100%, a residual activity [23] of 100% and a residual activity [24] of 100%. It also gave a residual activity [25] of 99%, a residual activity [26] of 100% and a residual activity [27] of 100%. The residual activity [28] was 100%, the residual activity [29] was 88% and the residual activity [30] was 100%. The residual activity [31] was 100%, the residual activity [32] was 100% and the residual activity [33] was 100%. For the same molecule, the residual activity [34] was 90%, the residual activity [35] was 100% and the residual activity [36] was 100%. It also gave a residual activity [37] of 100%, a residual activity [38] of 92% and a residual activity [39] of 100%. For the same molecule, the residual activity [40] was 24%, the residual activity [41] was 100% and the residual activity [42] was 98%. The residual activity [43] was 100%, the residual activity [44] was 100% and the residual activity [45] was 100%.
`C[C@@]1(Cc2ccc(C#N)cc2)C(=O)N(c2cc(Cl)cc(Cl)c2)c2ncc(C(=O)NC3(c4nc(C5CCC5)no4)CC3)n21` [BI 9446] showed a residual activity [1] of 100%, a residual activity [2] of 100% and a residual activity [3] of 100%. It also gave a residual activity [4] of 90%, a residual activity [5] of 100% and a residual activity [6] of 100%. It also gave a residual activity [7] of 95%, a residual activity [8] of 80% and a residual activity [9] of 97%. The residual activity [10] was 100%, the residual activity [11] was 100% and the residual activity [12] was 72%. It also gave a residual activity [13] of 100%, a residual activity [14] of 100% and a residual activity [15] of 100%. The residual activity [16] was 100%, the residual activity [17] was 95% and the residual activity [18] was 100%. It also gave a residual activity [19] of 100%, a residual activity [20] of 100% and a residual activity [21] of 100%. The residual activity [22] was 100%, the residual activity [23] was 99% and the residual activity [24] was 100%. The residual activity [25] was 100%, the residual activity [26] was 100% and the residual activity [27] was 100%. It also gave a residual activity [28] of 100%, a residual activity [29] of 93% and a residual activity [30] of 100%. It also gave a residual activity [31] of 100%, a residual activity [32] of 99% and a residual activity [33] of 96%. The residual activity [34] was 91%, the residual activity [35] was 100% and the residual activity [36] was 100%. For the same molecule, the residual activity [37] was 100%, the residual activity [38] was 100% and the residual activity [39] was 100%. It also gave a residual activity [40] of 91%, a residual activity [41] of 100% and a residual activity [42] of 100%. It also gave a residual activity [43] of 100%, a residual activity [44] of 100% and a residual activity [45] of 100%.
